Several values for one entry are separate records, joined by “and”; a condition that tells them apart may be missing. Equal entries are not always repeated. Toxic doses and inconclusive results are not listed.
Tested on: L1210 leukemia ip in BDF1 mice, survival T/C
Assay: NCI In Vivo Anticancer Drug Screen. Data for tumor model L1210 Leukemia (intraperitoneal) in B6D2F1 (BDF1) mice
Details: endpoint: mean survival time, higher = longer survival
In short: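 Read-out is survival time, reported as the treated-group measurement over the vehicle-control measurement.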

[1] = dose: 100.0 mg/kg/injection, schedule: Q01DX001 (ip), vehicle: saline
[2] = dose: 200.0 mg/kg/injection, schedule: Q01DX001 (ip), vehicle: saline
[3] = dose: 400.0 mg/kg/injection, schedule: Q01DX001 (ip), vehicle: saline
[4] = dose: 25.0 mg/kg/injection, schedule: Q04DX002 (ip), vehicle: Klucel (hydroxypropylcellulose) (HPC)
[5] = dose: 50.0 mg/kg/injection, schedule: Q04DX002 (ip), vehicle: Klucel (hydroxypropylcellulose) (HPC)
[6] = dose: 100.0 mg/kg/injection, schedule: Q04DX002 (ip), vehicle: Klucel (hydroxypropylcellulose) (HPC)
[7] = dose: 100.0 mg/kg/injection, schedule: Q01DX009 (ip), vehicle: saline with Tween-80
[8] = dose: 100.0 mg/kg/injection, schedule: Q04DX002 (ip), vehicle: saline
[9] = dose: 400.0 mg/kg/injection, schedule: Q04DX002 (ip), vehicle: saline
[10] = dose: 200.0 mg/kg/injection, schedule: Q04DX002 (ip), vehicle: Klucel (hydroxypropylcellulose) (HPC)
[11] = dose: 100.0 mg/kg/injection, schedule: Q04DX003 (ip), vehicle: saline with Tween-80
[12] = dose: 200.0 mg/kg/injection, schedule: Q04DX003 (ip), vehicle: saline with Tween-80
[13] = dose: 400.0 mg/kg/injection, schedule: Q04DX003 (ip), vehicle: saline with Tween-80
[14] = dose: 100.0 mg/kg/injection, schedule: Q04DX003 (ip), vehicle: saline
[15] = dose: 200.0 mg/kg/injection, schedule: Q04DX003 (ip), vehicle: saline
[16] = dose: 400.0 mg/kg/injection, schedule: Q04DX003 (ip), vehicle: saline

Cc1[nH]c2ccccc2c1C(=O)Cc1ccc(Cl)c(Cl)c1
T/C (dose: 50.0 mg/kg/injection, schedule: Q01DX001 (ip), vehicle: saline): 101 % of control
T/C [1]: 98 % of control
T/C [2]: 98 % of control
T/C [3]: 101 % of control

O=C(C1C(c2ccccc2)C1c1ccccc1)N(CCO)Cc1ccccc1 (stereo not drawn)
T/C [4]: 94 % of control
T/C [5]: 103 % of control
T/C [6]: 94 % of control

CC(=O)OCC(NC(=O)N(CCCl)N=O)C(OC(C)=O)C(OC(C)=O)C(COC(C)=O)OC(C)=O (stereo not drawn)
T/C (dose: 9.0 mg/kg/injection, schedule: Q01DX001 (ip), vehicle: saline + alcohol): 266 % of control
T/C (dose: 13.0 mg/kg/injection, schedule: Q01DX001 (ip), vehicle: saline + alcohol): 179 % of control
T/C (dose: 20.0 mg/kg/injection, schedule: Q01DX001 (ip), vehicle: saline + alcohol): 282 % of control

CC(C)CNC(=O)Nc1ccccc1
T/C (dose: 75.0 mg/kg/injection, schedule: Q01DX001 (ip), vehicle: saline): 97 % of control
T/C (dose: 150.0 mg/kg/injection, schedule: Q01DX001 (ip), vehicle: saline): 95 % of control

CCC1([N+](=O)[O-])COP(=O)(NCc2cccnc2)OC1 (stereo not drawn)
T/C (dose: 100.0 mg/kg/injection, schedule: Q01DX001 (ip), vehicle: carboxymethylcellulose (CMC)): 92 % of control
T/C (dose: 200.0 mg/kg/injection, schedule: Q01DX001 (ip), vehicle: carboxymethylcellulose (CMC)): 101 % of control
T/C (dose: 400.0 mg/kg/injection, schedule: Q01DX001 (ip), vehicle: carboxymethylcellulose (CMC)): 116 % of control

CNC(=O)NNc1ccccc1
T/C [7]: 101 % of control
T/C (dose: 200.0 mg/kg/injection, schedule: Q01DX009 (ip), vehicle: saline with Tween-80): 101 % of control
T/C (dose: 400.0 mg/kg/injection, schedule: Q01DX009 (ip), vehicle: saline with Tween-80): 105 % of control

O=C(Nc1ccccc1F)Nc1cccc2ccc(O)cc12
T/C (dose: 100.0 mg/kg/injection, schedule: Q01DX009 (ip), vehicle: alcohol): 95 % of control
T/C (dose: 200.0 mg/kg/injection, schedule: Q01DX009 (ip), vehicle: alcohol): 98 % of control
T/C (dose: 400.0 mg/kg/injection, schedule: Q01DX009 (ip), vehicle: alcohol): 93 % of control

COC(CO)C(O)C(O)C=O (stereo not drawn)
T/C (dose: 100.0 mg/kg/injection, schedule: Q01DX009 (ip), vehicle: saline): 93 % of control
T/C (dose: 200.0 mg/kg/injection, schedule: Q01DX009 (ip), vehicle: saline): 97 % of control
T/C (dose: 400.0 mg/kg/injection, schedule: Q01DX009 (ip), vehicle: saline): 102 % of control

CCOC(=O)CC(NC(=O)N(CCCl)CCCl)C(=O)OCC (stereo not drawn)
T/C (dose: 62.5 mg/kg/injection, schedule: Q01DX Z (ip), vehicle: water): 101 % of control
T/C (dose: 125.0 mg/kg/injection, schedule: Q01DX Z (ip), vehicle: water): 108 % of control
T/C (dose: 250.0 mg/kg/injection, schedule: Q01DX Z (ip), vehicle: water): 111 % of control

COC(=O)c1n[nH]c(C)c1N=NN1CCC(C(N)=O)CC1
T/C (dose: 9.38 mg/kg/injection, schedule: Q01DX001 (ip), vehicle: other): 118 % of control
T/C (dose: 18.75 mg/kg/injection, schedule: Q01DX001 (ip), vehicle: other): 109 % of control
T/C (dose: 37.5 mg/kg/injection, schedule: Q01DX001 (ip), vehicle: other): 101 % of control

CC(=O)OCCc1ccc(F)cc1
T/C [8]: 102 % of control
T/C (dose: 200.0 mg/kg/injection, schedule: Q04DX002 (ip), vehicle: saline): 105 % of control
T/C [9]: 102 % of control

CC(=O)OCC(=O)C1CCC2(C)C3=C(CCC12C)C1(C)CCC(=O)C(C)(C)C1CC3 (stereo not drawn)
T/C (dose: 50.0 mg/kg/injection, schedule: Q01DX001 (sc), vehicle: steriod suspending solution): 105 % of control
T/C (dose: 100.0 mg/kg/injection, schedule: Q01DX001 (sc), vehicle: steriod suspending solution): 94 % of control
T/C (dose: 200.0 mg/kg/injection, schedule: Q01DX001 (sc), vehicle: steriod suspending solution): 100 % of control
T/C (dose: 400.0 mg/kg/injection, schedule: Q01DX001 (sc), vehicle: steriod suspending solution): 100 % of control

COC(=O)N1C2C=CC(C2)N1C(=O)OC
T/C (dose: 50.0 mg/kg/injection, schedule: Q01DX009 (ip), vehicle: DMSO): 96 % of control
T/C (dose: 100.0 mg/kg/injection, schedule: Q01DX009 (ip), vehicle: DMSO): 93 % of control
T/C (dose: 100.0 mg/kg/injection, schedule: Q04DX003 (ip), vehicle: DMSO): 97 % of control
T/C (dose: 200.0 mg/kg/injection, schedule: Q04DX003 (ip), vehicle: DMSO): 95 % of control

O=C1OC2CCCCC2/C1=C/N1CCCCC1 (stereo not drawn)
T/C (dose: 5.0 mg/kg/injection, schedule: Q04DX002 (ip), vehicle: Klucel (hydroxypropylcellulose) (HPC)): 92 % of control
T/C (dose: 10.0 mg/kg/injection, schedule: Q04DX002 (ip), vehicle: Klucel (hydroxypropylcellulose) (HPC)): 102 % of control
T/C (dose: 20.0 mg/kg/injection, schedule: Q04DX002 (ip), vehicle: Klucel (hydroxypropylcellulose) (HPC)): 107 % of control
T/C (dose: 40.0 mg/kg/injection, schedule: Q04DX002 (ip), vehicle: Klucel (hydroxypropylcellulose) (HPC)): 93 % of control
T/C [5]: 103 % of control
T/C [10]: 102 % of control and 103 % of control
T/C (dose: 400.0 mg/kg/injection, schedule: Q04DX002 (ip), vehicle: Klucel (hydroxypropylcellulose) (HPC)): 88 % of control

CC(C)(CO)CN1CCCCC1
T/C (dose: 50.0 mg/kg/injection, schedule: Q01DX009 (ip), vehicle: saline with Tween-80): 93 % of control
T/C [7]: 93 % of control

Cn1c(SCc2ccccc2)nccc1=O
T/C (dose: 100.0 mg/kg/injection, schedule: Q01DX009 (ip), vehicle: Klucel (hydroxypropylcellulose) (HPC)): 96 % of control
T/C (dose: 200.0 mg/kg/injection, schedule: Q01DX009 (ip), vehicle: Klucel (hydroxypropylcellulose) (HPC)): 104 % of control

Cn1c(N)nc2nc[nH]c2c1=O
T/C (dose: 18.7 mg/kg/injection, schedule: Q01DX Z (ip), vehicle: methylcellulose (MC)): 95 % of control
T/C (dose: 37.5 mg/kg/injection, schedule: Q01DX Z (ip), vehicle: methylcellulose (MC)): 89 % of control

CC(=O)Nc1ccc(Cc2ccc(Br)cc2)cc1
T/C [1]: 96 % of control
T/C [2]: 106 % of control

C/C(=N\O)C1(C)CC=CCC1CO (stereo not drawn)
T/C [11]: 101 % of control
T/C [12]: 101 % of control
T/C [13]: 96 % of control

O=C(O)c1cc([N+](=O)[O-])ccc1Oc1cccc([N+](=O)[O-])c1
T/C (dose: 222.0 mg/kg/injection, schedule: Q01DX Z (ip), vehicle: methylcellulose (MC)): 93 % of control
T/C (dose: 333.0 mg/kg/injection, schedule: Q01DX Z (ip), vehicle: methylcellulose (MC)): 90 % of control
T/C (dose: 500.0 mg/kg/injection, schedule: Q01DX Z (ip), vehicle: methylcellulose (MC)): 93 % of control

NC(N)=Nc1ccc(C(=O)Oc2ccc([N+](=O)[O-])cc2)cc1
T/C [11]: 108 % of control
T/C [12]: 94 % of control
T/C [13]: 89 % of control

CC(=O)OCCCCOC(C)=O
T/C [1]: 105 % of control
T/C [2]: 109 % of control
T/C [3]: 107 % of control

O=C1c2cccc3c([N+](=O)[O-])ccc(c23)C(=O)N1Cc1cccnc1
T/C [4]: 106 % of control
T/C [5]: 100 % of control
T/C [6]: 103 % of control and 86 % of control
T/C [10]: 101 % of control

Cc1noc(-n2c(C)ccc2C)c1C
T/C [14]: 97 % of control
T/C [15]: 100 % of control
T/C [16]: 95 % of control

CCCCC(=O)N1C(C)CCCC1C (stereo not drawn)
T/C (dose: 25.0 mg/kg/injection, schedule: Q04DX002 (ip), vehicle: saline): 88 % of control
T/C (dose: 50.0 mg/kg/injection, schedule: Q04DX002 (ip), vehicle: saline): 91 % of control
T/C [8]: 94 % of control
T/C [9]: 96 % of control

COc1ccccc1OC(=O)Nc1ccc(S(=O)(=O)N(C)C)cc1
T/C [1]: 97 % of control
T/C [14]: 97 % of control
T/C [2]: 100 % of control
T/C [15]: 95 % of control
T/C [3]: 91 % of control
T/C [16]: 97 % of control

CC(=O)NC1C(OC(=O)c2ccccc2)OC2COCOC2C1OC(=O)c1ccccc1 (stereo not drawn)
T/C (dose: 100.0 mg/kg/injection, schedule: Q01DX001 (ip), vehicle: saline with Tween-80): 90 % of control
T/C (dose: 200.0 mg/kg/injection, schedule: Q01DX001 (ip), vehicle: saline with Tween-80): 97 % of control
T/C (dose: 400.0 mg/kg/injection, schedule: Q01DX001 (ip), vehicle: saline with Tween-80): 92 % of control

From PubChem BioAssay AID248 (DTP/NCI, 2004)
